Data reported in patent US20120196884A1, “UREA SUBSTITUTED SULPHONAMIDE DERIVATIVES” (BIOTIE THERAPIES CORPORATION, priority 2009, published 2012).
Entries after “also recorded” stand apart in the source; their conditions may differ.

Key:
PC-3 cells = experiment: PC-3 cell invasion through Matrigel; format: cell-based; details: Homo sapiens, 72 hours
Excerpt: The overexpression regulates cell adhesion and migration to and invasion through the extracellular matrix. By blocking the interaction between extracellular matrix components like collagen and α2β1 it is possible to block cancer cell migration and invasion in vitro. Prostate cancer cells (PC-3) expressing α2β1 endogenously were used to test the in vitro anticancer potential of the inhibitors of the present invention.
Invasion of PC-3 cells (CRL-1435, ATCC) through Matrigel was studied using BD Biocoat invasion inserts (BD Biosciences). Inserts were stored at −20° C. Before the experiments inserts were allowed to adjust to the room temperature. 500 μl of serum free media (Ham's F12K medium, 2 mM Lglutamine, 1.5 g/l sodium bicarbonate) was added into the inserts and allowed to rehydrate at 37° C. in cell incubator for two hours. The remaining media was aspirated. PC-3 cells were detached, pelleted and suspended into serum free media (50 000 cells/500 μL). 300 μL of cell suspension was added into the insert in the absence (control) or presence of the inhibitor according to the present invention. Inserts were placed on the 24-well plates; each well containing 700 μL of cell culture media with 3% of fetal bovine serum as chemoattractant. Cells were allowed to invade for 72 hours at 37° C. in cell incubator. Inserts were washed with 700 μL PBS, and fixed with 4% paraformaldehyde for 10 minutes. Paraformaldehyde was aspirated and cells were washed with 700 μL of PBS and inserts were stained by incubation with hematoxylin for 1 minute. The stain was removed by washing the inserts with 700 μL of PBS. Inserts were allowed to dry. Fixed invaded cells were calculated under the microscope. Invasion % was calculated as a comparison to the control.

[1] = test system: platelet adhesion to collagen; experiment: Cellix microfluidic system: platelet adhesion to collagen coated capillary under flow; format: cell-based, human; parameters: key to Inhibition of platelet adhesion to collagen: + indictes that the compound efficiently inhibited the platelet adhesion to collagen; details: for Inhibition of platelet adhesion to collagen: whole blood, collagen coated capillary, shear 90 dynes/cm^2
Experimental: Cellix microfluidic platform models human blood vessels providing a dynamic set-up mimicking physiological conditions to test new therapeutic agents (Cellix Ltd). The platform was used to measure the platelet adhesion to collagen coated capillary under flow. An anti-coaculated whole blood sample was run through a collagen coated capillary under a constant shear and the size of thrombi on capillary wall was analyzed with analysis program (DucoCell, Cellix Ltd).
The capillary were coated with Horm collagen 20 μg/mL (Nycomed) and incubated for 24 h in +4° C. Background was blocked with 1% BSA (bovine serum albumin, Sigma) treatment for 30 min in room temperature. Blood was collected from a donor into blood collection tubes containing 40 μM PPACK (Dphenylalanyl-L-prolyl-L-arginine chloromethyl-ketone, Calbiochem) as anticoagulant. Blood was treated either with inhibitory compounds or vehicle controls. Samples were kept at room temperature for 5 minutes. The samples were run through the capillary with the constant shear rate (90 dynes/cm^2, Mirus 1.0 Nanopump, Cellix Ltd) for 5 min and capillary was washed with JNL buffer (6 mM Dextrose, 0.13 M NaCl, 9 mM Na Bicarb, 10 mM Na Citrate, 10 mM Tris base, 3 mM KCl, 0.81 mM KH2PO4, 0.9 mM MgCl2; pH was adjusted to 7.35 with 19 mM Citrate acid anhydrous, 37 mM Sodium citrate, 67 mM Dextrose) with the constant shear rate (90 dynes/cm^2) for 2 min. After that the average thrombi area on the capillary wall was analyzed with DucoCell analysis program (Cellix Ltd).

IL-6 = experiment: LPS-induced IL-6 release in whole blood; format: cell-based, human; details: LPS 0.25 ng/mL, 2 h
Experimental: The inflammatory cells are shown to be dependent on α2β1 function during inflammatory process. The anti-inflammatory potential of the α2β1 modulators was studied by measuring the effect on the release of cytokines like IL-6 as an example from inflammatory cells. Lipopolysaccharide (LPS) was used to induce the production of IL-6. Anticoaculated whole blood sample was incubated with or without the integrin α2β1 inhibitor before LPS was added to induce the cytokine release. The amount of cytokine IL-6 released from peripheral blood leukocytes was measured from plasma samples 2 hours after the induction.
Blood was collected from the donors via venipuncture into evacuated Lithium heparin tubes (VenoJect, Terumo). Blood was treated with either α2β1 integrin inhibitors or vehicle control (DMSO). Samples were kept at room temperature for 5 minutes and lipopolysaccharide (LPS, 0.25 ng/mL) was added to induce cytokine release from peripheral blood lymphocytes. Samples were inculabted for 2 h in 37° C., the plasma was isolated and the amount of IL-6 was determined with Human IL-6 Quantikine ELISA Kit (R&D Systems).

whole blood = experiment: PFA-100 platelet function analyzer, closure time of whole blood; format: cell-based; details: PFA-100 analysis, collagen and ADP membrane
Experimental: The PFA-100 is a high shear-inducing device that simulates primary haemostasis after injury of a small vessel. The system comprises a test-cartridge containing a biologically active membrane coated with collagen and ADP. An anticoaculated whole blood sample was run through a capillary under a constant vacuum. […] The time required to obtain full occlusion of the aperture was designated as the closure time. Each compound was added to the whole blood sample and the closure time was measured with PFA-100.
Blood was collected from a donor via venipuncture into evacuated blood collection Lithium heparin tubes (VenoJect, Terumo). Blood was aliquoted into 1.5 mL tubes and treated with either inhibitory compounds or controls (DMSO). Samples were kept at room temperature with rotation for 10 minutes and after that the closure time (Ct) of the blood was measured.

Row | Structure (SMILES) | inhibition at 5 µM (PC-3 cells) [%] | Inhibition of platelet adhesion to collagen [1] | other results
1 | Cc1ccc(NC(=O)Nc2ccccc2)cc1N(C)S(=O)(=O)c1cccc(-c2ccc(F)cc2)c1 [Compound B63] | 45 |  | 
2 | CN(c1ccc(NC(=O)Nc2ccccc2)cc1)S(=O)(=O)c1ccc(-c2cc(C(F)(F)F)nn2C)s1 [Compound B19] |  | + | 
3 | CN(c1ccc(NC(=O)Nc2ccccc2)cc1)S(=O)(=O)c1cccc(-c2ccc(F)cc2)c1 [Compound B55] | 76 |  | 
4 | CN(c1ccc(NC(=O)Nc2ccccc2)cc1)S(=O)(=O)c1ccc(-c2ccccn2)s1 [Compound B11] |  | + | 
5 | Cc1ccc(NC(=O)NCc2ccccc2)cc1NS(=O)(=O)c1cccc(-c2ccc(F)cc2)c1 [Compound B67] | 10 | + | 
6 | COCCOc1cccc(NC(=O)Nc2ccc(NS(=O)(=O)c3cccc(-c4ccc(F)cc4)c3)cc2)c1 [Compound B60] | 70 | + | 
7 | CN(c1ccc(NC(=O)Nc2ccncc2)cc1)S(=O)(=O)c1cccc(-c2ccc(F)cc2)c1 [Compound B75] | 38 |  | 
8 | CN(c1ccc(NC(=O)Nc2ccccc2)cc1)S(=O)(=O)c1cnn(-c2ccc(F)cc2)c1 [Compound B3] |  | + | 
9 | CN(c1ccc(NC(=O)Nc2ccccc2)cc1)S(=O)(=O)c1ccc(-n2ccnc2)s1 [Compound B17] |  | + | 
10 | O=C(Nc1ccccc1)Nc1ccc(N(CCCO)S(=O)(=O)c2cccc(-c3ccc(F)cc3)c2)cc1 [Compound B33] |  | + | 
11 | Cc1nn(-c2ccc(F)cc2)c(C)c1S(=O)(=O)N(CCCO)c1ccc(NC(=O)Nc2ccccc2)cc1 [Compound B54] |  | + | 
12 | CN(c1ccc(NC(=O)Nc2ccccc2)cc1)S(=O)(=O)c1cnn(-c2ccc(F)cn2)c1 [Compound B1] |  | + | platelet adhesion to collagen coated capillary under flow (FIG. 1) ([1]; Cellix analysis, flow conditions): dose dependent inhibitory effect; also recorded: inhibits the platelet adhesion to collagen coated capillary under mimicking physiological flow conditions dose dependently
13 | CN(c1ccc(NC(=O)Nc2ccccc2)cc1)S(=O)(=O)c1ccc(Cl)cc1Cl [Compound B77] | 40 |  | 
14 | CN(c1ccc(NC(=O)Nc2ccccc2)cc1)S(=O)(=O)c1ccc(-c2ccnn2C)s1 [Compound B6] |  |  | release of IL-6 after induction with LPS (IL-6): decreases the release of cytokines like IL-6
15 | Cc1ccccc1NC(=O)Nc1ccc(NS(=O)(=O)c2cccc(-c3ccc(F)cc3)c2)cc1 [Compound B64] | 42 |  | 
16 | O=C(Nc1ccccc1)Nc1ccc(Cl)c(NS(=O)(=O)c2cccc(-c3ccc(F)cc3)c2)c1 [Compound B86] | 44 |  | 
17 | COc1ccc(NC(=O)Nc2ccc(NS(=O)(=O)c3cccc(-c4ccc(F)cc4)c3)cc2)cc1 [Compound B72] | 39 |  | 
18 | CN(C)c1ccc(-c2ccc(S(=O)(=O)N(C)c3ccc(NC(=O)Nc4ccccc4)cc3)s2)cn1 [Compound B7] |  | + | 
19 | CN(c1ccc(NC(=O)Nc2ccccc2)cc1)S(=O)(=O)c1cc(C(F)(F)F)ccc1Cl [Compound B80] | 43 |  | 
20 | CN(c1ccc(NC(=O)Nc2ccccc2)cc1)S(=O)(=O)c1cccc(OC(F)F)c1 [Compound B68] | 29 |  | 
21 | O=C(Nc1ccccc1)Nc1ccc(NS(=O)(=O)c2cccc(-c3ccc(F)cc3)c2)cc1 [Compound B94] | 40 | + | closure time (Ct) of the whole blood (whole blood): increases the closure time (Ct)
22 | O=C(NCc1ccccc1)Nc1ccc(NS(=O)(=O)c2cccc(-c3ccc(F)cc3)c2)cc1 [Compound B91] | 56 |  | 
23 | CN(c1ccc(NC(=O)Nc2ccccc2)cc1)S(=O)(=O)c1cncc(-c2ccc(F)cc2)c1 [Compound B52] | 25 |  | 
24 | CN(c1ccc(NC(=O)Nc2ccccc2)cc1)S(=O)(=O)c1cccc(C#N)c1 [Compound B78] | 30 | + | 
25 | Cc1ccc(NC(=O)Nc2ccccc2)cc1NS(=O)(=O)c1cccc(-c2ccc(F)cc2)c1 [Compound B40] | 98 | + | 
26 | Cc1ccccc1NC(=O)Nc1ccc(C)c(NS(=O)(=O)c2cccc(-c3ccc(F)cc3)c2)c1 [Compound B42] |  | + | 
27 | COc1ccc(-n2cc(S(=O)(=O)N(C)c3ccc(NC(=O)Nc4ccccc4)cc3)cn2)cn1 [Compound B109] |  | + | 
28 | O=C(Nc1ccccc1)Nc1cc(NS(=O)(=O)c2cccc(-c3ccc(F)cc3)c2)ccc1Cl [Compound B47] | 96 |  | 
29 | O=C(Nc1ccncc1)Nc1ccc(NS(=O)(=O)c2cccc(-c3ccc(F)cc3)c2)cc1 [Compound B93] |  | + | 
